Measured values: ChEMBL document CHEMBL3734724, “Anticancer efficacy of unique pyridine-based tetraindoles” (Eur J Med Chem, 2015)
Activity calls are given as the source filed them. The calls are words filed in the database; no cut-off is given here.

Tests used:
MDA-MB-231 [1] = assay: Antimetastatic activity against luciferase-expressing human MDA-MB-231 cells xenografted in nude mouse assessed as suppression of lung metastasis by measuring reduction of lung weight at 25 mg/kg, ip administered every other day measured on day 54 relative to vehicle-treated control; type: functional; design: scale not given: the % may be the effect or the level left
MDA-MB-231 [2] = assay: Cytotoxicity against human MDA-MB-231 cells assessed as growth inhibition after 48 hrs by MTT assay; type: functional, cell-based; settings: MDA-MB-231, 48 h
[3] = Cytotoxicity against human Hs578T cells assessed as growth inhibition after 48 hrs by MTT assay; type: functional, cell-based; settings: Hs-578T
MCF7 = assay: Cytotoxicity against human MCF7 cells assessed as growth inhibition after 48 hrs by MTT assay; type: functional, cell-based; settings: MCF7, 48 h
[4] = Cytotoxicity against human M10 cells assessed as growth inhibition after 48 hrs by MTT assay; type: cell-based; settings: M10, 48 h
[5] = Ratio of compound IC50 to SK228 IC50 for human M10 cells; type: ADME, cell-based; settings: read-out: Ratio IC50
MDA-MB-231 [6] = assay: Cell cycle arrest in human MDA-MB-231 cells assessed as accumulation at G0/G1 phase at 0.4 uM after 24 hrs by propidium iodide staining-based flow cytometric analysis (reference value: 57 +/- 6%); type: functional
MDA-MB-231 [7] = assay: Cell cycle arrest in human MDA-MB-231 cells assessed as accumulation at G0/G1 phase at 0.8 uM after 24 hrs by propidium iodide staining-based flow cytometric analysis (reference value: 57 +/- 6%); type: functional
MDA-MB-231 [8] = assay: Cell cycle arrest in human MDA-MB-231 cells assessed as accumulation at G0/G1 phase at 1.6 uM after 24 hrs by propidium iodide staining-based flow cytometric analysis (reference value: 57 +/- 6%); type: functional
MDA-MB-231 [9] = assay: Cell cycle arrest in human MDA-MB-231 cells assessed as accumulation at S phase at 0.4 uM after 24 hrs by propidium iodide staining-based flow cytometric analysis (reference value: 32 +/- 4%); type: functional
MDA-MB-231 [10] = assay: Cell cycle arrest in human MDA-MB-231 cells assessed as accumulation at S phase at 0.8 uM after 24 hrs by propidium iodide staining-based flow cytometric analysis (reference value: 32 +/- 4%); type: functional
MDA-MB-231 [11] = assay: Cell cycle arrest in human MDA-MB-231 cells assessed as accumulation at G2/M phase at 0.4 uM after 24 hrs by propidium iodide staining-based flow cytometric analysis (reference value: 12 +/- 2%); type: functional
MDA-MB-231 [12] = assay: Cell cycle arrest in human MDA-MB-231 cells assessed as accumulation at G2/M phase at 1.6 uM after 24 hrs by propidium iodide staining-based flow cytometric analysis (reference value: 12 +/- 2%); type: functional
MDA-MB-231 [13] = assay: Cell cycle arrest in human MDA-MB-231 cells assessed as accumulation at sub-G1 phase at 0.4 uM after 24 hrs by propidium iodide staining-based flow cytometric analysis relative to control; type: functional
MDA-MB-231 [14] = assay: Cell cycle arrest in human MDA-MB-231 cells assessed as accumulation at sub-G1 phase at 0.8 uM after 24 hrs by propidium iodide staining-based flow cytometric analysis relative to control; type: functional
MDA-MB-231 [15] = assay: Cell cycle arrest in human MDA-MB-231 cells assessed as accumulation at G0/G1 phase at 0.4 uM after 48 hrs by propidium iodide staining-based flow cytometric analysis (reference value: 57.8 +/- 0.7%); type: functional
MDA-MB-231 [16] = assay: Cell cycle arrest in human MDA-MB-231 cells assessed as accumulation at G0/G1 phase at 0.8 uM after 48 hrs by propidium iodide staining-based flow cytometric analysis (reference value: 57.8 +/- 0.7%); type: functional
MDA-MB-231 [17] = assay: Cell cycle arrest in human MDA-MB-231 cells assessed as accumulation at G0/G1 phase at 1.6 uM after 48 hrs by propidium iodide staining-based flow cytometric analysis (reference value: 57.8 +/- 0.7%); type: functional
MDA-MB-231 [18] = assay: Cell cycle arrest in human MDA-MB-231 cells assessed as accumulation at S phase at 0.8 uM after 48 hrs by propidium iodide staining-based flow cytometric analysis (reference value: 26 +/- 3%); type: functional
MDA-MB-231 [19] = assay: Cell cycle arrest in human MDA-MB-231 cells assessed as accumulation at G2/M phase at 0.4 uM after 48 hrs by propidium iodide staining-based flow cytometric analysis (reference value: 16 +/- 3%); type: functional
MDA-MB-231 [20] = assay: Cell cycle arrest in human MDA-MB-231 cells assessed as accumulation at G2/M phase at 0.8 uM after 48 hrs by propidium iodide staining-based flow cytometric analysis (reference value: 16 +/- 3%); type: functional
MDA-MB-231 [21] = assay: Cell cycle arrest in human MDA-MB-231 cells assessed as accumulation at G2/M phase at 1.6 uM after 48 hrs by propidium iodide staining-based flow cytometric analysis (reference value: 16 +/- 3%); type: functional
MDA-MB-231 [22] = assay: Cell cycle arrest in human MDA-MB-231 cells assessed as accumulation at sub-G1 phase at 0.4 uM after 48 hrs by propidium iodide staining-based flow cytometric analysis relative to control; type: functional
MDA-MB-231 [23] = assay: Cell cycle arrest in human MDA-MB-231 cells assessed as accumulation at sub-G1 phase at 0.8 uM after 48 hrs by propidium iodide staining-based flow cytometric analysis relative to control; type: functional
MDA-MB-231 [24] = assay: Cell cycle arrest in human MDA-MB-231 cells assessed as accumulation at sub-G1 phase at 1.6 uM after 48 hrs by propidium iodide staining-based flow cytometric analysis relative to control; type: functional
MDA-MB-231 [25] = assay: Cell cycle arrest in human MDA-MB-231 cells assessed as accumulation at G2/M phase after 48 hrs by propidium iodide staining-based flow cytometric analysis; type: functional
MDA-MB-231 [26] = assay: Upregulation of cyclin B1 protein expression in human MDA-MB-231 cells at 0.4 to 3.2 uM after 48 hrs by Western blot analysis relative to control; type: functional, cell-based
MDA-MB-231 [27] = assay: Downregulation of cyclin A protein expression in human MDA-MB-231 cells at 0.4 to 3.2 uM after 48 hrs by Western blot analysis relative to control; type: functional, cell-based
MDA-MB-231 [28] = assay: Reduction of phospho-cdc2 (Tyr15) dephosphorylation in human MDA-MB-231 cells after 48 hrs by Western blot analysis; type: functional, cell-based
MDA-MB-231 [29] = assay: Upregulation of phosphorylated chk2 protein expression in human MDA-MB-231 cells after 48 hrs by Western blot analysis; type: functional, cell-based
MDA-MB-231 [30] = assay: Induction of apoptosis in human MDA-MB-231 cells assessed as DNA ladder formation at 0.4 to 3.2 uM after 24 hrs; type: functional, cell-based
MDA-MB-231 [31] = assay: Induction of DNA damage in human MDA-MB-231 cells after 48 hrs by alkaline comet assay; type: functional, cell-based
MDA-MB-231 [32] = assay: Induction of DNA damage in human MDA-MB-231 cells at 3.2 uM after 48 hrs by alkaline comet assay relative to control; type: functional
MDA-MB-231 [33] = assay: Antitumor activity against luciferase-expressing human MDA-MB-231 cells xenografted in nude mouse assessed as tumor growth inhibition at 10 mg/kg, ip administered every other day measured on day 54 relative to vehicle-treated control; type: functional; settings: MDA-MB-231, ip, 1296 h, read-out: TGI
MDA-MB-231 [34] = assay: Antitumor activity against luciferase-expressing human MDA-MB-231 cells xenografted in ip dosed nude mouse assessed as tumor growth inhibition administered every other day measured on day 54; type: functional, organism-based
MDA-MB-231 [35] = assay: Antimetastatic activity against luciferase-expressing human MDA-MB-231 cells xenografted in ip dosed nude mouse assessed as reduction of lung metastasis administered every other day measured on day 54; type: functional, organism-based

## Oc1ccc2[nH]cc(C(c3ccc(C(c4c[nH]c5ccc(O)cc45)c4c[nH]c5ccc(O)cc45)nc3)c3c[nH]c4ccc(O)cc34)c2c1
MDA-MB-231 [1]
  Activity: 22%
MDA-MB-231 [2]
  IC50: 0.8 µM
[3]
  IC50: > 20 µM
MCF7
  IC50: 14 µM
[4]
  IC50: > 20 µM
[5]
  selectivity ratio: 4
MDA-MB-231 [6]
  Activity: 53%
MDA-MB-231 [7]
  Activity: 54%
MDA-MB-231 [8]
  Activity: 53%
MDA-MB-231 [9]
  Activity: 33%
MDA-MB-231 [10]
  Activity: 31%
MDA-MB-231 [11]
  Activity: 13.2%
MDA-MB-231 [12]
  Activity: 20%
MDA-MB-231 [13]
  Activity: 0.1%
MDA-MB-231 [14]
  Activity: 1.5%
MDA-MB-231 [15]
  Activity: 54%
MDA-MB-231 [16]
  Activity: 49%
MDA-MB-231 [17]
  Activity: 45%
MDA-MB-231 [18]
  Activity: 29%
MDA-MB-231 [19]
  Activity: 18%
MDA-MB-231 [20]
  Activity: 22%
MDA-MB-231 [21]
  Activity: 24%
MDA-MB-231 [22]
  Activity: 1.3%
MDA-MB-231 [23]
  Activity: 12%
MDA-MB-231 [24]
  Activity: 23%
MDA-MB-231 [25]
  Activity: Dose-dependent effect
MDA-MB-231 [26]
  Activity: Active
MDA-MB-231 [27]
  Activity: Active
MDA-MB-231 [28]
  Activity: Dose-dependent effect
MDA-MB-231 [29]
  Activity: Dose-dependent effect
MDA-MB-231 [30]
  Activity: inactive
MDA-MB-231 [31]
  Activity: Dose-dependent effect
MDA-MB-231 [32]
  fold change (FC): 12
MDA-MB-231 [33]
  inhibition in vivo at 10 mg/kg: 58%
MDA-MB-231 [34]
  TGI: Dose-dependent effect
MDA-MB-231 [35]
  Activity: Dose-dependent effect
